# From the NIST ThermoML archive (doi:10.1016/j.jct.2009.06.009)
# “And” between values parts separate entries of the source, which are not always exact repeats. Equal values may be shown once. Numbers after ± are expanded uncertainties.
# Conditions: Liquid, Closed cell (Static) method
vapor or sublimation pressure (283.15 K),vapor or sublimation pressure (293.15 K),vapor or sublimation pressure (303.15 K),vapor or sublimation pressure (313.15 K),Compound
148 ± 2 kPa,208 ± 2 kPa,282 ± 2 kPa,378 ± 2 kPa,CCCC [butane]
638 ± 3 kPa,840 ± 3 kPa,1083 ± 3 kPa,1375 ± 4 kPa,CCC [propane]
3246 ± 9 kPa and 3242 ± 9 kPa,4158 ± 10 kPa and 4162 ± 10 kPa,–,–,FC(F)F [trifluoromethane]
